The assay has as its target GST–VCB protein complex (Homo sapiens, UniProt P40337). In kind it is binding. The conditions noted are these: reported FP Kd versus TR-FRET Ki. A general note: Time-resolved FRET reads energy transfer from a long-lived donor to a nearby acceptor.

Consider two molecules from article PMC7807814 (ACS Omega, 2020).

The structures appear in SMILES notation.

Sequence of GST–VCB protein complex (P40337 54-213): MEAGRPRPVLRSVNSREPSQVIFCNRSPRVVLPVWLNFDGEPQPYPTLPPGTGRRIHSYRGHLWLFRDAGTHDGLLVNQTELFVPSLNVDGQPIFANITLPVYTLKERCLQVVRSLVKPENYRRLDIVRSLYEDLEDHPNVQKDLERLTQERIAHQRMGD
Sequence of GST–VCB protein complex (Q15369 17-112, further chain): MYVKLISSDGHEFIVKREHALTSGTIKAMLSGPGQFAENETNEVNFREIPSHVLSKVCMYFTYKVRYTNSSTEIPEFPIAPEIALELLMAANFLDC
Sequence of GST–VCB protein complex (Q15370 whole entry, further chain): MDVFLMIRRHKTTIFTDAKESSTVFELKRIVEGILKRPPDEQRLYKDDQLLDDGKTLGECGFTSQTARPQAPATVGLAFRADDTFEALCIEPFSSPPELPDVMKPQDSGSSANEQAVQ

In the case of `CC(=O)N[C@H](C(=O)N1C[C@H](O)C[C@H]1C(=O)NCc1ccc(-c2scnc2C)cc1)C(C)(C)C` [VH032 (1), (2S,4R)-1-((S)-2-Acetamido-3,3-dimethylbutanoyl)-4-hydroxy-N-(4-(4-methylthiazol-5-yl)benzyl)pyrrolidine-2-carboxamide], the “sensitivity of TR-FRET assay over FAM–HIF–1α peptide (19 mer)-based FP assay” value is given as 4.49 fold. On to `Cc1ncsc1-c1ccc(CNC(=O)[C@@H]2C[C@@H](O)CN2C(=O)[C@@H](NC(=O)C2(C#N)CC2)C(C)(C)C)cc1` [VH298 (2), (2S,4R)-1-((S)-2-(1-Cyanocyclopropanecarboxamido)-3,3-dimethylbutanoyl)-4-hydroxy-N-(4-(4-methylthiazol-5-yl)benzyl)pyrrolidine-2-carboxamide], for which the “sensitivity of TR-FRET assay over FAM–HIF–1α peptide (19 mer)-based FP assay” value turned out to be 4.23 fold.
